Patent US10039756B2, “Reducing memory loss in mammals suffering from alzheimer's disease” (The Penn State Research Foundation, priority 2013, dated 2018)
One block for each compound: values may come before it.

Columns and labels:
human GAT-2 polypeptide = molecular target: T1, human GAT-2 polypeptide (Homo sapiens, UniProt Q9NSD5); details: cited from earlier work
T1 sequence (Q9NSD5 1-602): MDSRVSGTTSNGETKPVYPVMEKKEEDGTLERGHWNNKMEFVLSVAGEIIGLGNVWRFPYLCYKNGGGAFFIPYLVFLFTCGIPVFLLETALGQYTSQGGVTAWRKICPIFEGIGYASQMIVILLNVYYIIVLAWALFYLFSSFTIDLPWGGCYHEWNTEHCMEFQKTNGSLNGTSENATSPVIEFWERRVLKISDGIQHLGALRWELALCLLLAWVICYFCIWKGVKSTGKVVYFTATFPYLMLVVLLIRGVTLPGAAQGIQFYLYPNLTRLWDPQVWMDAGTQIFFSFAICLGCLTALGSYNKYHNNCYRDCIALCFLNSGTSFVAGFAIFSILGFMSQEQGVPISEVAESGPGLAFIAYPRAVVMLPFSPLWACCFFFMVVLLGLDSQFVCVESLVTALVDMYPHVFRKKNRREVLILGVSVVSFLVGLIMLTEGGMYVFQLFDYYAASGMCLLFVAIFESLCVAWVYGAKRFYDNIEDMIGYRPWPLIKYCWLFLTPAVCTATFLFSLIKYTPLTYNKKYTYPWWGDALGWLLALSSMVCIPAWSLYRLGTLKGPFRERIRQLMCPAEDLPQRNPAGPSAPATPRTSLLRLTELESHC

human GAT-1 polypeptide = human GAT-1 polypeptide (Homo sapiens, UniProt P30531); details: cited from earlier work
human GAT-3 polypeptide = molecular target: T2, human GAT-3 polypeptide (Homo sapiens, UniProt P48066); details: cited from earlier work
T2 sequence (P48066 1-632): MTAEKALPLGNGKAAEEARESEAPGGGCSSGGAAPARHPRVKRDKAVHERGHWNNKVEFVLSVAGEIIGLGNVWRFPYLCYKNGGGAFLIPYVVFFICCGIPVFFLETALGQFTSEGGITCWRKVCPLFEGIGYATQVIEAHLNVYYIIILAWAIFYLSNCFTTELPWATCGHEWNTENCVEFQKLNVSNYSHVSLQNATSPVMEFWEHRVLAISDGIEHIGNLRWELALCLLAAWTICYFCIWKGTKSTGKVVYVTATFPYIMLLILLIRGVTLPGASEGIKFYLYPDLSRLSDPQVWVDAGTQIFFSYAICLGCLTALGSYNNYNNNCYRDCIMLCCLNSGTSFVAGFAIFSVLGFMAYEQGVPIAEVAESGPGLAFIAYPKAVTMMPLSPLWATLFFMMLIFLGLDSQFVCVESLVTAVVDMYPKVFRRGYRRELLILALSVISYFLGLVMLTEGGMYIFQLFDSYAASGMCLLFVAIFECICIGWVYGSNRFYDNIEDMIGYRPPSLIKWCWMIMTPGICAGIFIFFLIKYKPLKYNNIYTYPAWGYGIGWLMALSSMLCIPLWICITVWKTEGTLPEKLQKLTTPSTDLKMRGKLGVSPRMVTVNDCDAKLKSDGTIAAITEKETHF

δ-GABAA-Rs = molecular target: T3, δ-GABAA-Rs (Mus musculus, UniProt P22933+P63137+Q9D6F4); test: THIP-induced tonic current in dentate granule cells of hippocampal slices; assay type: cell-based; details: 2 μM, n=8
T3 construct: from tissue; host or cells: mouse hippocampal slices, dentate granule cells
Experimental: (§1) Mice were anesthetized with 2.5% Avertin. After decapitation, brains were rapidly dissected out and placed in ice-cold cutting solution containing: 79 mM NaCl, 80 mM sucrose, 26 mM NaHCO3, 10 mM glucose, 2.5 mM KCl, 1.25 mM NaH2PO4, 7 mM MgSO4, and 0.5 mM CaCl2 for tonic current recordings. The cutting solution for field EPSP recordings contained: 230 mM sucrose, 26 mM NaHCO3, 20 mM glucose, 2.5 mM KCl, 1.25 mM NaH2PO4, 10 mM MgSO4, and 0.5 mM CaCl2. Both solutions were bubbled with 95% O2/5% CO2. […]
(§2) Whole-cell voltage clamp recordings were performed on dentate gyrus granule cells using a pipette solution containing: 135 mM CsCl, 5 mM Na-phosphocreatine, 10 mM HEPES, 5 mM EGTA, 4 mM MgATP, 5 mM QX-314, and 0.5 mM Na2GTP (pH 7.3 adjusted with CsOH, 280-290 mOsm/L). […] Data was acquired using pClamp 9 software (Molecular Devices; sampled at 10 kHz and filtered at 1 kHz), and analyzed with Clampfit 9.0 software (Molecular Devices). Field excitatory postsynaptic potentials (fEPSPs) were recorded with glass electrodes filled with 1 M NaCl and 25 mM HEPES (pH 7.3), and were evoked every 20 seconds with a parallel bipolar tungsten electrode (MicroProbes, USA), which was placed at medial perforant path in the dentate gyrus. […]

5xFAD mice = test: Y-maze spontaneous alternation task; assay type: in vivo, mouse; details: 1 mg kg-1, i.p., once per day for one week, p<0.05
Experimental: L-655,708 was dissolved at 1 mg/mL in DMSO, and frozen in storage aliquots. The working solution was diluted 10 times in normal saline solution. […] The last injection was administrated 30 minutes before behavioral test.
Spontaneous alternation performance was tested as described elsewhere (Oakley et al., J. Neurosci., 26(40):10129-10140 (2006)). […] It allows the assessment of hippocampus-dependent spatial working memory. Each mouse was placed in the center of a symmetrical Y-maze and was allowed to explore freely through the maze during an 8 minute session. The first two minutes were not included for data analysis because mice were exploring new environment. The total number and the sequence of arm entries in the last 6 minutes were recorded and analyzed. Arm entry was defined as the hind paws of the mice had been completely placed in the arm. Analysis was done blind. The percentage of alternation is the number of triads containing entries into all three arms divided by the maximum possible alternations (the total number of arms entered minus 2)×100.
A behavioral analysis was conducted to test the effect of enhanced tonic inhibition on the cognitive function of 5xFAD animals. […] Therefore, it was concluded that the abnormal tonic inhibition in DG is an important contributing factor toward the learning and memory deficit in AD.

α5-GABAA-Rs = molecular target: T4, α5-GABAA-Rs (Mus musculus, UniProt P22723+Q8BHJ7); test: Tonic current mediated by α5-GABAA-Rs, whole-cell patch clamp in hippocampal slices; assay type: cell-based
T4 construct: from tissue; host or cells: mouse hippocampal slices; dentate granule cells and CA1 pyramidal neurons
Experimental: Mice were anesthetized with 2.5% Avertin. After decapitation, brains were rapidly dissected out and placed in ice-cold cutting solution containing: 79 mM NaCl, 80 mM sucrose, 26 mM NaHCO3, 10 mM glucose, 2.5 mM KCl, 1.25 mM NaH2PO4, 7 mM MgSO4, and 0.5 mM CaCl2 for tonic current recordings. The cutting solution for field EPSP recordings contained: 230 mM sucrose, 26 mM NaHCO3, 20 mM glucose, 2.5 mM KCl, 1.25 mM NaH2PO4, 10 mM MgSO4, and 0.5 mM CaCl2. Both solutions were bubbled with 95% O2/5% CO2. Hippocampal slices were cut at 350 μm with a vibratome (VT1200S, Leica, Germany) and transferred to a transitional chamber containing one half of cutting solution and one half of standard artificial cerebrospinal fluid (ACSF). The ACSF was composed of: 125.0 mM NaCl, 2.5 mM KCl, 1.3 mM MgSO4, 26.0 mM NaHCO3, 1.25 mM NaH2PO4, 2.0 mM CaCl2, and mM 10 glucose (290-300 mOsmol; gassed with 95% O2/5% CO2, pH ˜7.4). Slices were then incubated in ACSF at 32° C. for 30 minutes to recover. Subsequently, slices were maintained at room temperature for another 30 minutes before recording. Individual slices were then transferred to a submerged recording chamber where they were continuously perfused (2-3 mL/minute) with ACSF saturated by 95% O2/5% CO2 at 32° C.
Whole-cell voltage clamp recordings were performed on dentate gyrus granule cells using a pipette solution containing: 135 mM CsCl, 5 mM Na-phosphocreatine, 10 mM HEPES, 5 mM EGTA, 4 mM MgATP, 5 mM QX-314, and 0.5 mM Na2GTP (pH 7.3 adjusted with CsOH, 280-290 mOsm/L). Pipette resistance was 2-5 MΩ, and series resistance was typically 20-40 MΩ. To record tonic GABA current, 10 μM CNQX and 50 μM DL-APV were added into the ACSF to block glutamate receptors. In some experiments, 5 μM GABA also was added into the ACSF to reveal larger tonic GABA current and increase the signal-to-noise ratio. […] The membrane potential was held at −70 mV. Data was acquired using pClamp 9 software (Molecular Devices; sampled at 10 kHz and filtered at 1 kHz), and analyzed with Clampfit 9.0 software (Molecular Devices). Field excitatory postsynaptic potentials (fEPSPs) were recorded with glass electrodes filled with 1 M NaCl and 25 mM HEPES (pH 7.3), and were evoked every 20 seconds with a parallel bipolar tungsten electrode (MicroProbes, USA), which was placed at medial perforant path in the dentate gyrus. Three evoked responses were averaged to obtain a data point. […]
The following was performed to investigate which subtype of GABAA-Rs mediate the enhanced tonic GABA current in AD dentate granule cells. […] Quantitatively, the tonic current blocked by L-655,708 in AD dentate granule cells was more than doubled that in WT animals (FIG. 5, panel e; WT, 35.4±6.3 pA, n=12; AD, 98.7±12.9 pA, n=9; p<0.001). […]

LTP in DG = test: Long-term potentiation (LTP) in dentate gyrus, hippocampal slice field EPSP recordings; assay type: cell-based, mouse; details: 100 nM; 5xFAD dentate granule cells
Experimental: as §1, §2

[1] = molecular target: T5, neuronal GABA transporters (Mus musculus, UniProt P31648); test: Tonic current induced by blockade of neuronal GABA transporters in dentate granule cells; assay type: cell-based; details: P>0.4
T5 construct: from tissue; host or cells: mouse hippocampal slices, dentate granule cells
Experimental: FIG. 7, panel a, contains typical traces showing tonic current induced by blockade of neuronal GABA transporters with NO-711 (1-[2-[[(Diphenylmethylene)imino]oxy]ethyl]-1,2,5,6-tetrahydro-3-pyridinecarboxylic acid hydrochloride hydrochloride). Large mIPSCs were truncated to better illustrate the tonic current.
Mice were anesthetized with 2.5% Avertin. After decapitation, brains were rapidly dissected out and placed in ice-cold cutting solution containing: 79 mM NaCl, 80 mM sucrose, 26 mM NaHCO3, 10 mM glucose, 2.5 mM KCl, 1.25 mM NaH2PO4, 7 mM MgSO4, and 0.5 mM CaCl2 for tonic current recordings. […]
as §2

T4 sequence (P63080 26-473): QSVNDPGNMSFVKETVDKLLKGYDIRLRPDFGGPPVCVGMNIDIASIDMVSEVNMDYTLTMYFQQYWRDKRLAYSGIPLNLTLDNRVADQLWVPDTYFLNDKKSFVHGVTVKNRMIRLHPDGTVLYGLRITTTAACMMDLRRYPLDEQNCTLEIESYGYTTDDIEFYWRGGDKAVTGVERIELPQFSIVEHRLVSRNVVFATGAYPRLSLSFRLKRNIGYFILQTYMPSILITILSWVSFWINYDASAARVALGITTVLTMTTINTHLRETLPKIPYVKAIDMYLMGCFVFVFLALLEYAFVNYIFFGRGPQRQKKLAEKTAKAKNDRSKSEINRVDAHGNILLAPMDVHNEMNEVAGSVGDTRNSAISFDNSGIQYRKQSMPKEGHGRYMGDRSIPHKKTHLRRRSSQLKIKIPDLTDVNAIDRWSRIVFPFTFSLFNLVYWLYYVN
T4 sequence (Q8BHJ7 32-463): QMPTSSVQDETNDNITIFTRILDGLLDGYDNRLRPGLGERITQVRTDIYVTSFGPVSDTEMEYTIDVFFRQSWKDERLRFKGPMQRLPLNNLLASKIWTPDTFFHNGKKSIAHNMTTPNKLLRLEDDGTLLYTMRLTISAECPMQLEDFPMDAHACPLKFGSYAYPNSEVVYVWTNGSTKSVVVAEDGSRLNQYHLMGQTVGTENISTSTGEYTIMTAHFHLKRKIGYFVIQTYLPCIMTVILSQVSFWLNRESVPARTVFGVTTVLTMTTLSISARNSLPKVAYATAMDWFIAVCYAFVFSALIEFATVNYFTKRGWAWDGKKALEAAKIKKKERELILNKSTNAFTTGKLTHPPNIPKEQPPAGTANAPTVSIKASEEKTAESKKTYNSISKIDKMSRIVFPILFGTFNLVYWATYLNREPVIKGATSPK
T4 sequence (P22723 39-474): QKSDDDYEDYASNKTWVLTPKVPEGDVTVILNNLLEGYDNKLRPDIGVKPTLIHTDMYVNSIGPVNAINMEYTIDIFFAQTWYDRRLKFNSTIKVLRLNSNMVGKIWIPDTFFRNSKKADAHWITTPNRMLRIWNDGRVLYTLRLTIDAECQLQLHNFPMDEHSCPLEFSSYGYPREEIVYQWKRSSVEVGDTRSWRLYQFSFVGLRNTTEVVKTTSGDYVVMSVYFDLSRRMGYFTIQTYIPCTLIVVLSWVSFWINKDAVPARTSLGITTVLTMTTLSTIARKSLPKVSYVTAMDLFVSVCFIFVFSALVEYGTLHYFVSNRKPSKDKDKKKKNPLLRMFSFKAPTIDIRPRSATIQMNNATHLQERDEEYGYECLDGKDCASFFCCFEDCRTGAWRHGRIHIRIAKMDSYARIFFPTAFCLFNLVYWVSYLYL
T3 sequence (P22933 17-449 limits assumed): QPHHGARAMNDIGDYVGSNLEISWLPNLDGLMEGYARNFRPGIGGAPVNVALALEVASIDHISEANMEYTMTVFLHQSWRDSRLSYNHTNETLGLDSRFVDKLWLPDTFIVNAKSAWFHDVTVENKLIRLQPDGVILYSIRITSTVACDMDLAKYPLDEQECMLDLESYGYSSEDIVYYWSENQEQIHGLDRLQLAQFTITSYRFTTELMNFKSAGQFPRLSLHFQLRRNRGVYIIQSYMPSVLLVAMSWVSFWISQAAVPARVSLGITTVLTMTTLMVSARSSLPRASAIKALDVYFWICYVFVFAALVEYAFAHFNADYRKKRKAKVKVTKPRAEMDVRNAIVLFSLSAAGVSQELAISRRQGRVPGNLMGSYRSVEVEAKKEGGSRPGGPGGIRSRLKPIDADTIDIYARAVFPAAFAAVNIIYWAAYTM
T3 sequence (Q9D6F4 36-552): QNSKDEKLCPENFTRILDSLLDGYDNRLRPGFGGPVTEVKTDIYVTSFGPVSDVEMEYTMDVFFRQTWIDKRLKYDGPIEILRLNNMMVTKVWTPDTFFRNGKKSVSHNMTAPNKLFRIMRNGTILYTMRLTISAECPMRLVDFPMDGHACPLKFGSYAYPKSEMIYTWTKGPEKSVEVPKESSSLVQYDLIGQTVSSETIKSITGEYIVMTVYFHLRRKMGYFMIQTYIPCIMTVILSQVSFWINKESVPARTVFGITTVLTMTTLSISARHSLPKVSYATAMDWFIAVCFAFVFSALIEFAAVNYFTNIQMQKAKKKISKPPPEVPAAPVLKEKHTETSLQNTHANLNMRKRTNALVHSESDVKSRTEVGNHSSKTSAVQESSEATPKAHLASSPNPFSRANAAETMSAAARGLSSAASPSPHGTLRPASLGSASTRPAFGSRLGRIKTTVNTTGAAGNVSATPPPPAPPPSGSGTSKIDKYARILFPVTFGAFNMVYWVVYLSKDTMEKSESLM
T3 sequence (P63137 25-474 limits assumed): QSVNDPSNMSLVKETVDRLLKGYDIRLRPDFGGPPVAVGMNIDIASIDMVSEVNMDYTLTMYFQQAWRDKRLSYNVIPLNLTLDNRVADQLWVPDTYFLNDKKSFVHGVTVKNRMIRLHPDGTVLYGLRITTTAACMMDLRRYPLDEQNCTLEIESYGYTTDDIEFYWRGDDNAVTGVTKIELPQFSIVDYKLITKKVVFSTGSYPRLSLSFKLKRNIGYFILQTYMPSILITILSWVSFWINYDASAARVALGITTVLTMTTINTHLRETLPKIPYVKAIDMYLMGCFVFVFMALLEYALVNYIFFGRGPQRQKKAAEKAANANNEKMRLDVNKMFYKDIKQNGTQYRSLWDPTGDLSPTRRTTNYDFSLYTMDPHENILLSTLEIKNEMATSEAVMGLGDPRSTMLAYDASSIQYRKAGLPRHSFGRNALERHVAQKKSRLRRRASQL
human GAT-1 polypeptide, sequence (P30531 whole entry): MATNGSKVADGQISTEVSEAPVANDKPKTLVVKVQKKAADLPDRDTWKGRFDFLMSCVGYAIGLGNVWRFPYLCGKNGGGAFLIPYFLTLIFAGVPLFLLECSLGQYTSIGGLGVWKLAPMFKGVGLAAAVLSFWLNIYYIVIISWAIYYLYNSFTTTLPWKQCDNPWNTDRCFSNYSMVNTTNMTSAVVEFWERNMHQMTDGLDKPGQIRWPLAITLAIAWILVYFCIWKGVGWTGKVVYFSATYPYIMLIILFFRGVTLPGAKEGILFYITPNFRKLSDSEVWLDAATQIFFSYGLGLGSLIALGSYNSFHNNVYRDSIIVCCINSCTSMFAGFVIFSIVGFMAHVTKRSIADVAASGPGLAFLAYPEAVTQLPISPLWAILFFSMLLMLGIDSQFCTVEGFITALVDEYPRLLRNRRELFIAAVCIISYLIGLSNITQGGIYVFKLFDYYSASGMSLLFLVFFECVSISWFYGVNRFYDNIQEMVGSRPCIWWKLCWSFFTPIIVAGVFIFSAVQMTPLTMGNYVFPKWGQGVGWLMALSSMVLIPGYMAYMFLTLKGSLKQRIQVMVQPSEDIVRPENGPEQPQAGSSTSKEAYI

SMILES: COc1ccc(C2(O)CCN(CCCn3c4ccccc4c4ccccc43)CC2)cc1 [NNC 05-2045, 1-(3-(9H-carbazol-9-yl)-1-propyl)-4-(4-methoxyphenyl)-4-piperidinol]
- Ki (human GAT-2 polypeptide): > 10 µM
- Ki (human GAT-1 polypeptide): > 20 µM
- Ki (human GAT-3 polypeptide): < 10 µM

SMILES: Oc1noc2c1CCNC2 [THIP, 4,5,6,7-tetrahydroisoxazolo[5,4-c]pyridin-3-ol]
- THIP-induced tonic current (δ-GABAA-Rs; AD (5xFAD) dentate granule cells): 60.7±10.4 pA
- THIP-induced tonic current (δ-GABAA-Rs; WT dentate granule cells): 65.2±6.6 pA

SMILES: CCOC(=O)c1ncn2c1C1CCCN1C(=O)c1cc(OC)ccc1-2 [L-655,708, 11,12,13,13a-tetrahydro-7-methoxy-9-oxo-9H-imidazo[1,5-a]pyrrolo[2,1-c][1,4]benzodiaz-epine-1-carboxylic acid, ethyl ester]
- effect on memory deficit (spontaneous alternation) (5xFAD mice): rescued the memory deficit
- block of tonic current (α5-GABAA-Rs; 100 nM, AD (5xFAD) dentate granule cells): majority of tonic current in AD dentate granule cells was blocked
- tonic current blocked by L-655,708 (α5-GABAA-Rs; AD (5xFAD) dentate granule cells, n=9): 98.7±12.9 pA
- proportion of tonic current blocked, WT vs AD (α5-GABAA-Rs; CA1 neurons): similar
- tonic current blocked by L-655,708 (α5-GABAA-Rs; WT dentate granule cells, n=12): 35.4±6.3 pA
- effect on LTP impairment (LTP in DG): rescued the LTP impairment

- tonic currents revealed by NO-711, WT vs. 5xFAD [1]: no difference
SMILES: Cl.O=C(O)C1=CCCN(CCON=C(c2ccccc2)c2ccccc2)C1 [NO-711, 1-[2-[[(Diphenylmethylene)imino]oxy]ethyl]-1,2,5,6-tetrahydro-3-pyridinecarboxylic acid hydrochloride hydrochloride]
